US9585871B2, “Method for treating and curing leishmaniosis using fexinidazole” (Merial Limited, priority 2013, dated 2017)

Tested on: L. infantum
Assay: Clinical study in dogs infected with L. infantum: Overall Biological Score
Format: in vivo
Parameters: key: additive score of severity of hematology/chemistry changes
Settings: samples collected on D16 (printed in Day 28 column), Group 1 Block 8 dog removed for toxicity; Glucantime 100 mg/kg dNMA SC once daily

Substance: meglumine antimoniate [Glucantime]
- Overall Biological Score: 5^2
